Measurements from US6706740B2, “Fungicidal heterocyclic aromatic amides and their compositions, methods of use and preparation” (Dow AgroSciences LLC, priority 1999, dated 2004).
Read-outs that look alike come from different tables or passages of the source.

What was measured:
[1] = system: Phytophthora infestans (PHYTIN); assay: microbe, parasite or virus in culture; format: cell-based; conditions: Phytophthora infestans, read-out: PHYTIN in vitro Growth Inhibition
Erysiphe graminis—ERYSGT = assay: Powdery Mildew of Wheat, in vivo whole plant, 24 Hour Protectant; conditions: Erysiphe, read-out: ERYSGT in vivo 1 Day Protectant
[2] = system: Mycosphaerella graminicola (Septoria tritici—SEPTTR); assay: In vitro fungal growth inhibition, Mycosphaerella graminicola (SEPTTR); format: cell-based; conditions: Zymoseptoria tritici, read-out: SEPTTR in vitro Growth Inhibition
[3] = system: Phytophthora infestans—PHYTIN; assay: whole plant or invertebrate; format: in vivo; conditions: Phytophthora, in Solanum lycopersicum, 24 h, read-out: PHYTIN in vivo 1 Day Protectant
[4] = system: Magnaporthe grisea (Pyricularia oryzae—PYRIOR); assay: microbe, parasite or virus in culture; format: cell-based; conditions: Pyricularia oryzae, read-out: PYRIOR in vitro Growth Inhibition
Ustilago maydis (USTIMA) = assay: microbe, parasite or virus in culture; format: cell-based; conditions: Mycosarcoma maydis, read-out: USTIMA in vitro Growth Inhibition
[5] = system: Rhizoctonia solani (RHIZSO); assay: microbe, parasite or virus in culture; format: cell-based; conditions: Rhizoctonia solani, read-out: RHIZSO in vitro Growth Inhibition
[6] = system: Puccinia recondita—PUCCRT; assay: Brown Rust of Wheat, in vivo whole plant, 24 Hour Protectant; conditions: for pest or weed control at 100 ppm: Puccinia, read-out: PUCCRT in vivo 1 Day Protectant
[7] = system: Leptosphaeria nodorum—LEPTNO; assay: Glume Blotch of Wheat, in vivo whole plant, 24 Hour Protectant; conditions: for pest or weed control at 100 ppm: Leptosphaeria, read-out: LEPTNO in vivo 1 Day Protectant
[8] = system: Stagonospora nodorum (Leptosphaeria nodorum—LEPTNO); assay: In vitro fungal growth inhibition, Stagonospora nodorum (LEPTNO); format: cell-based; conditions: Leptosphaeria, read-out: LEPTNO in vitro Growth Inhibition
Septoria tritici—SEPTTR = assay: Leaf Blotch of Wheat, in vivo whole plant, 24 Hour Protectant; conditions: for pest or weed control at 100 ppm: Zymoseptoria tritici, 24 h, read-out: SEPTTR in vivo 1 Day Protectant
[9] = 100 ppm spray, wheat, 24 hour protectant, control of fungal infection vs untreated plants
[10] = wheat plants sprayed at 100 ppm, inoculated after 24 hours, control of fungal infection vs untreated plants
[11] = 100 ppm spray, wheat, 24 hour protectant, % control of fungal infection vs untreated plants
[12] = 100 ppm spray, 24 hour protectant, wheat, control of fungal infection vs untreated plants

| SMILES | inhibition at 25 ppm [1] | pest or weed control at 100 ppm (Erysiphe graminis—ERYSGT; [9]) | pest or weed control at 100 ppm [3] | inhibition at 25 ppm [4] | inhibition at 25 ppm (Ustilago maydis (USTIMA)) | inhibition at 25 ppm [5] | pest or weed control at 100 ppm [6, 9] | pest or weed control at 100 ppm [7, 9] | pest or weed control at 100 ppm (Septoria tritici—SEPTTR; [9]) | pest or weed control at 100 ppm (Erysiphe graminis—ERYSGT; [10]) | inhibition at 25 ppm ([2]; 25 ppm in the growth medium) | inhibition at 25 ppm ([8]; 25 ppm in the growth medium) | inhibition at 25 ppm ([2]; 25 ppm in growth medium) | inhibition at 25 ppm ([8]; 25 ppm in growth medium) | further results |
| --- | --- | --- | --- | --- | --- | --- | --- | --- | --- | --- | --- | --- | --- | --- | --- |
| COc1ccnc(C(=O)N[C@H]2C[C@@H](O[Si](C)(C)C(C)(C)C)O[C@@H](C)[C@@H]2OCc2ccccc2)c1O [Compound 328] | > 80% | < 25% | < 25% | < 80% | < 80% | < 80% | < 25% | 25 to 74% | 25 to 74% | – | – | – | – | – | inhibition at 25 ppm [2]: < 80%; inhibition at 25 ppm [8]: < 80% |
| COCCC(=O)Oc1cccnc1C(=O)N[C@H]1COC(=O)[C@H](Cc2ccccc2)[C@@H](OC(=O)C(C)C)[C@H](C)OC1=O [Compound 569] | < 80% | – | 25 to 74% | > 80% | < 80% | < 80% | – | – | – | < 25% | > 80% | > 80% | – | – | PUCCRT in vivo 1 Day Protectant [6, 10]: + +; LEPTNO in vivo 1 Day Protectant [7, 10]: + +; SEPTTR in vivo 1 Day Protectant (Septoria tritici—SEPTTR; [10]): + + |
| COc1ccnc(C(=O)NC(COC(=O)C(Cc2ccccc2)C(C)OC(=O)c2ccccc2)C(=O)OC(C)C)c1O (stereo not drawn) [Compound 356] | < 80% | < 25% | < 25% | < 80% | < 80% | < 80% | 25 to 74% | 25 to 74% | 25 to 74% | – | – | – | < 80% | < 80% | – |
| COc1ccnc(C(=O)Nc2ccc(Oc3cccc(C#N)c3)cc2)c1O [Compound 421] | < 80% | < 25% | < 25% | < 80% | < 80% | < 80% | < 25% | 25 to 74% | < 25% | – | – | – | < 80% | < 80% | – |
| COC(=O)C(COC(=O)COCc1ccccc1)NC(=O)c1nccc(OC)c1O (stereo not drawn) [Compound 346] | > 80% | < 25% | < 25% | < 80% | < 80% | < 80% | 25 to 74% | < 25% | 25 to 74% | – | – | – | < 80% | < 80% | – |
| CSc1ccnc(C(=O)NC2CC(C)(C)CC(C)(C)C2)c1O [Compound 477] | < 80% | – | < 25% | < 80% | < 80% | < 80% | – | – | – | < 25% | < 80% | < 80% | – | – | pest or weed control at 100 ppm [6, 10]: < 25%; pest or weed control at 100 ppm [7, 10]: 25 to 74%; pest or weed control at 100 ppm (Septoria tritici—SEPTTR; [10]): 25 to 74% |
| COc1ccnc(C(=O)Nc2ccccc2Oc2ccc(Cl)cc2)c1O [Compound 438] | < 80% | < 25% | < 25% | > 80% | < 80% | < 80% | < 25% | < 25% | < 25% | – | – | – | > 80% | > 80% | – |
| COc1ccnc(C(=O)N[C@H]2COC(=O)[C@H](Cc3ccccc3)[C@@H](OC(=O)CC(C)C)[C@H](C)OC2=O)c1OC(C)=O [Compound 702] | < 80% | – | < 25% | < 80% | < 80% | < 80% | – | – | – | – | – | – | < 80% | > 80% | pest or weed control at 100 ppm (Erysiphe graminis—ERYSGT; [11]): < 25%; PUCCRT in vivo 1 Day Protectant [6, 11]: + +; LEPTNO in vivo 1 Day Protectant [7, 11]: + +; SEPTTR in vivo 1 Day Protectant (Septoria tritici—SEPTTR; [11]): + + |
| COc1ccnc(C(=O)NC2CC(C)(C)/C=C\CC(C)(C)C2)c1O (stereo not drawn) [Compound 283] | < 80% | – | < 25% | < 80% | < 80% | < 80% | – | – | – | – | – | – | < 80% | < 80% | pest or weed control at 100 ppm (Erysiphe graminis—ERYSGT; [12]): < 25%; pest or weed control at 100 ppm [6, 12]: 25 to 74%; pest or weed control at 100 ppm [7, 12]: 25 to 74%; SEPTTR in vivo 1 Day Protectant (Septoria tritici—SEPTTR; [12]): + + |
| COc1ccnc(C(=O)Nc2cccc(Oc3ccc(Cl)cc3)c2)c1O [Compound 440] | < 80% | < 25% | < 25% | > 80% | < 80% | < 80% | 25 to 74% | – | 25 to 74% | – | – | – | > 80% | > 80% | LEPTNO in vivo 1 Day Protectant [7, 9]: + + |
| COc1ccnc(C(=O)NC2C(=O)c3ccc(-c4ccco4)cc3OC2C)c1O (stereo not drawn) [Compound 323] | < 80% | – | < 25% | > 80% | < 80% | > 80% | – | – | – | – | – | – | > 80% | > 80% | pest or weed control at 100 ppm (Erysiphe graminis—ERYSGT; [12]): < 25%; pest or weed control at 100 ppm [6, 12]: 25 to 74%; LEPTNO in vivo 1 Day Protectant [7, 12]: + +; SEPTTR in vivo 1 Day Protectant (Septoria tritici—SEPTTR; [12]): + + |
| CC1(C)CC(NC(=O)c2nccc(Cl)c2O)CC(C)(C)C1 [Compound 480] | < 80% | – | < 25% | > 80% | < 80% | < 80% | – | – | – | < 25% | < 80% | < 80% | – | – | pest or weed control at 100 ppm [6, 10]: < 25%; pest or weed control at 100 ppm [7, 10]: 25 to 74%; pest or weed control at 100 ppm (Septoria tritici—SEPTTR; [10]): < 25% |
| O=C(Nc1ccccc1Oc1ccc(C(F)(F)F)cc1)c1nc(Br)ccc1O [Compound 493] | < 80% | – | < 25% | < 80% | < 80% | < 80% | – | – | – | < 25% | < 80% | < 80% | – | – | pest or weed control at 100 ppm [6, 10]: < 25%; pest or weed control at 100 ppm [7, 10]: < 25%; pest or weed control at 100 ppm (Septoria tritici—SEPTTR; [10]): 25 to 74% |
| COc1ccnc(C(=O)NC2CC(C)(C)C3OC3[C@H](C)[C@H]2C)c1O (stereo partly drawn) [Compound 280] | < 80% | – | 25 to 74% | < 80% | < 80% | < 80% | – | – | – | – | – | – | < 80% | < 80% | pest or weed control at 100 ppm (Erysiphe graminis—ERYSGT; [12]): < 25%; pest or weed control at 100 ppm [6, 12]: 25 to 74%; pest or weed control at 100 ppm [7, 12]: 25 to 74%; pest or weed control at 100 ppm (Septoria tritici—SEPTTR; [12]): 25 to 74% |
| CC(C)C(=O)O[C@H]1[C@H](C)OC(=O)[C@@H](NC(=O)c2nscc2O)COC(=O)[C@@H]1Cc1ccccc1 [Compound 550] | > 80% | – | < 25% | > 80% | < 80% | < 80% | – | – | – | 25 to 74% | > 80% | > 80% | – | – | pest or weed control at 100 ppm [6, 10]: 25 to 74%; LEPTNO in vivo 1 Day Protectant [7, 10]: + +; pest or weed control at 100 ppm (Septoria tritici—SEPTTR; [10]): 25 to 74% |
